Literature values as cited in patent US20250049835A1, “COMPOSITIONS FOR ALTERING CYCLIC ADP-RIBOSE SECONDARY MESSENGER SIGNALLING” (Yeda Research and Development Co. Ltd., priority 2022, published 2025).

Target: T1, Bacillus cereus MSX-D12 ThsA enzyme (Bacillus cereus, UniProt J8G6Z1)
T1 construct: The reporter enzyme ThsA was expressed and purified as described previously; made in house
T1 sequence (J8G6Z1 1-476): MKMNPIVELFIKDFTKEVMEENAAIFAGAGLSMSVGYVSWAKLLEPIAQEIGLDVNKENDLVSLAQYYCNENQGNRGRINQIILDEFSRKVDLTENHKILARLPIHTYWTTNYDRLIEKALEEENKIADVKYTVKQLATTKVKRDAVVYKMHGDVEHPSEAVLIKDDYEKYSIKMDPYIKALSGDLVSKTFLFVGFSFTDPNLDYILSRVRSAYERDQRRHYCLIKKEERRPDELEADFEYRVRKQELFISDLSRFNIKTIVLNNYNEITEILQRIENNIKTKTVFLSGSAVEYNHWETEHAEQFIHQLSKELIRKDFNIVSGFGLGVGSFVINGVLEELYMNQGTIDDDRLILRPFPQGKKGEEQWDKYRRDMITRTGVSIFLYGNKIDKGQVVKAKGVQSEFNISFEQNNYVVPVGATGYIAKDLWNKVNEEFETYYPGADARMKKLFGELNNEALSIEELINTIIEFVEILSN
Conditions: previously shown

Compound: Nc1ncnc2c1ncn2[C@@H]1O[C@@H]2COP(=O)(O)OP(=O)(O)OC[C@H]3O[C@@H](OC1C2O)C(O)C3O (stereo partly shown) [1′-2′ gcADPR]
- Activation of ThsA by cADPR isomer produced by plant TIR proteins: can activate the Theoris effector ThsA
